Results as given in patent US8435947B2, “Endothelial nitric oxide synthase antagonists and uses thereof for inhibiting oxygen toxicity” (Medical College of Georgia Research Institute, Inc., priority 2010, dated 2013).

Experiments:
eNOS = eNOS catalytic activity (L-citrulline formation) in hyperoxic PAEC; assay type: cell-based, pigs; details: 95% oxygen 24 h
Method: (§1) Third- to sixth-passage cells in monolayer culture were maintained in RPMI 1640 medium containing 4% fetal bovine serum and antibiotics (10 units/ml penicillin, 100 μg/ml streptomycin, 20 μg/ml gentamicin, and 2 μg/ml Fungizone) and were used 2 or 3 days after confluence.
(§2) The homogenates were centrifuged at 100,000 g for 60 min at 4° C., and the total membrane pellet was resuspended in buffer B (bufferAplus 2.5 mM CaCl2). The resulting suspension was used for determination of eNOS activity by monitoring the formation of L-[^3H]citrulline from L-[^3H]arginine (Su, Y., et al. (2003) Am. J. Physiol. Cell Physiol. 284, C1542-C1549). To determine NO production, thapsigargin (100 nM) was added to the medium of endothelial cells following normoxic or hyperoxic exposure. After 60 min of incubation, culture medium was collected and ethanol-precipitated to remove proteins. 50 μl of the reaction mix were loaded to the SIEVERS machine for NOx (NO2 and NO3) measurement according to standard manufacturer's instruction as previously described (Church, J E., et al. (2006) J. Biol. Chem. 281, 1477-1488). Protein contents in the cell lysates were determined by Lowry's method.
(§3) To reduce β-actin availability to eNOS, the β-actin mRNA was silenced using its siRNA as previously reported by us (Kondrikov, D., et al. (2006) Am. J. Physiol. Lung Cell Mol. Physiol. 290, L41-L50).

PAEC [1] = details: peptide 20 μM, 95% oxygen 24 h
Method: as §1

[2] = tested on: pulmonary artery endothelial cells; experiment: NO production in endothelial cells (NOx, SIEVERS); assay type: cell-based, pigs; details: peptide 20 μm 3 h, ionomycin 2 μM
Method: After wild-type and eNOS mutant transfection, ionomycin (2 μm) was added to the cells. After 30 min of incubation, culture medium was collected and ethanol-precipitated to remove proteins. 50 μl of the reaction mix were loaded to the SIEVERS machine for NOx measurement according to standard manufacturer's instructions (Church, J. E., and Fulton, D. (2006) J. Biol. Chem. 281, 1477-88). In some experiments, N^G-nitro-1-arginine methyl ester (L-NAME), a specific eNOS inhibitor, was used to inhibit NO production. […] For superoxide assay, after incubation with ABS peptides, the spin trap CMH was added to the cells. Superoxide from cells was trapped for 1 h, and then cells were scraped and subjected to EPR spectroscopy as previously described (Sud, N., et al. (2008) Am. J. Physiol. Cell Physiol. 294, C1407-18). Protein contents in the cell lysates were determined by Lowry's method.
To measure NO production, endothelial cells were incubated with ABS peptides for 3 h. Then ionomycin (2 μM) was added to the cells. After an additional 30 min, culture medium was collected and ethanol-precipitated to remove proteins. 50 μl of the reaction mix were loaded to the SIEVERS machine for NOx measurement as described above. For superoxide assay, after incubation with ABS peptides, the spin trap CMH was added to the cells. […]

[3] = tested on: pulmonary artery endothelial cells; experiment: endothelial monolayer wound repair; assay type: cell-based, pigs; details: P326TAT 20 μm
Method: Pulmonary artery endothelial cells were incubated with ABS peptides for 3 h. Then endothelial monolayer wound repair in the absence and presence of PEG-SOD (100 units/ml) and NOC-18 (10 μm) was measured as previously reported (Su, Y., et al. (2006) FASEB J. 20, 1443-51). Endothelial monolayer wound repair distance was expressed as the width of the wound before treatment subtracted by that after treatment.

PAEC [4] = experiment: NO production in hyperoxic PAEC; assay type: cell-based, pigs; details: 95% oxygen 24 h
Method: as §1, §2, §3

eNOS-β-actin association [5] = target: T1, eNOS-β-actin association (Sus scrofa, UniProt Q6QAQ1); experiment: eNOS-β-actin co-immunoprecipitation in PAEC under normoxia or hyperoxia; assay type: cell-based, pigs
T1 construct: endogenous in cells; host or cells: porcine pulmonary artery endothelial cells (PAEC)
Method: as §1, §3

eNOS-β-actin association [6] = target: T1, eNOS-β-actin association; experiment: eNOS-β-actin co-immunoprecipitation in pulmonary artery endothelial cells; assay type: cell-based, pigs; details: peptide 20 μm, 3 h
Method: Transfection of Endothelial Cells with ABS Peptides Pulmonary artery endothelial cells were incubated with ABS peptides at 20 μm final concentration in MEM medium. […] Cells were then incubated for another 2 h before being used for co-immunoprecipitation and eNOS activity assays.
Determination of eNOS-β-Actin Association, NO Production, and Superoxide Formation in Endothelial Cells eNOS-β-Actin association was evaluated using co-immunoprecipitation.
This TAT tag is a novel method used to facilitate delivery of biologically active proteins or peptides into cells and tissues through the fusion of a protein transduction domain to the protein or peptide of interest (Gustafsson, A. B., et al. (2002) Circulation 106, 735-39). To confirm the efficiency of P326TAT and control peptide TAT to enter endothelial cells, FITC-labeled P326TAT and FITC-labeled control peptide TAT were used. […] Endothelial cells were incubated with P326TAT and control peptide TAT for 3 h, and then eNOS-β-actin association was evaluated by co-immunoprecipitation using anti-eNOS antibody.

eNOS-Hsp90 interaction = experiment: eNOS-Hsp90 co-immunoprecipitation in endothelial cells; assay type: cell-based, pigs; details: versus control peptide TAT-transfected cells
Method: To rule out the possibility that the effect of P326TAT on eNOS activity in endothelial cells is caused by its effect on eNOS-Hsp90 interaction, eNOS-Hsp90 association was measured by co-immunoprecipitation using eNOS antibody.

PAEC [7] = experiment: peroxynitrite formation in hyperoxic PAEC (APF fluorescence); assay type: cell-based, pigs; details: 95% oxygen 24 h
Method: as §1, §3

[8] = tested on: pulmonary artery endothelial cells; experiment: superoxide formation in endothelial cells (CMH spin trap, EPR); assay type: cell-based, pigs; details: endothelial cells, peptide 20 μm, versus control peptide TAT
Method: To measure NO production, endothelial cells were incubated with ABS peptides for 3 h. Then ionomycin (2 μM) was added to the cells. After an additional 30 min, culture medium was collected and ethanol-precipitated to remove proteins. 50 μl of the reaction mix were loaded to the SIEVERS machine for NOx measurement as described above. For superoxide assay, after incubation with ABS peptides, the spin trap CMH was added to the cells. Superoxide from cells was trapped for 1 h, and then cells were scraped and subjected to EPR spectroscopy.

In the case of RKKRRQRRRALGLRWYAL [P326TAT], the “hyperoxia-induced increase in eNOS activity” value (eNOS) is reported as “hyperoxic exposure did not induce an increase in eNOS activity”, the “tyrosine nitration of proteins at 250, 100, 75, and 60 kDa, hyperoxia versus normoxia” value (PAEC [1]) is reported as “comparable between normoxia and hyperoxia” and the NO production [2] is reported as “significantly decreased NO production”. The “endothelial monolayer wound repair” value [3] was “exhibited lower capacity of wound repair”, the “hyperoxia-induced increase in NO formation” value (PAEC [4]) was “prevented hyperoxiainduced increases in NO and peroxynitrite formation” and the “hyperoxia-induced increase in β-actin co-immunoprecipitated with eNOS” value (eNOS-β-actin association [5]; 95% oxygen 24 h) was “prevented hyperoxia-induced increase in eNOS-β-actin co-immunoprecipitation”. The “amount of β-actin co-immunoprecipitated with eNOS” value (eNOS-β-actin association [5]; peptide 20 μM) was “significantly decreased the amount of β-actin co-immunoprecipitated with eNOS”, the “amount of β-actin co-immunoprecipitated with eNOS” value (eNOS-β-actin association [6]) was “significantly decreased the amount of β-actin co-immunoprecipitated with eNOS” and the “eNOS-Hsp90 interaction (Hsp90 co-precipitated with eNOS)” value (eNOS-Hsp90 interaction) was “did not affect eNOS-Hsp90 interaction”. The “hyperoxia-induced increase in peroxynitrite formation” value (PAEC [7]) was “prevented hyperoxiainduced increases in NO and peroxynitrite formation” and the superoxide formation [8] was “much higher in P326TAT-transfected endothelial cells than control peptide TAT-transfected endothelial cells”.
